Laboratory results as given in patent US8710099B2, “Treatment of cancer using the sodium salt of a benzoic acid derivative” (New York University, priority 2009, dated 2014).

Key:
[1] = tested on: tyrosinase (from mushrooms); test: Purified tyrosinase activity, DOPAchrome formation; type: biochemical; details: 8.0 mM, up to 10 minutes; FIG. 2
Method: Activity of purified tyrosinase was measured by monitoring the formation of DOPAchrome. Briefly, a fixed concentration of L-DOPA (8.0 mM) was incubated with 800 U/ml tyrosinase (from mushrooms-Sigma, St. Louis, Mo.) in the absence or presence of increasing concentrations of PABA, compound 44 (C-44) and compound 45 (C-45) (see FIG. 1 for structures) for indicated time points (see FIG. 2 for concentrations and time points). At each time point, 100 μl of the reaction mixture was measured. Data points represent the mean optical density at 475 nm±SD from triplicate wells.

[2] = tested on: 4T1 breast carcinoma cells; test: Tumor cell proliferation, WST-1 tetrazolium salt cleavage; type: cell-based; details: 50 μg/ml test compound, 0.01 μM TAXOL®; vs untreated control; FIG. 3C
Method: (§1) Tumor cell proliferation was assessed by monitoring mitochondrial dehydrogenase activity as detected by tetrazolium salt cleavage using a commercially available kit (WST-1; Roche, Indianapolis, Ind.). Briefly, B16F10 melanoma cells, Lewis Lung carcinoma cells, and 4T1 breast carcinoma cells (1×10^6) were resuspended in PABA-free growth medium supplemented with 2.0% fetal bovine serum and 50 μg/ml of test compound (as shown in FIG. 1) Following incubation for 3 days, the cells were either treated or not treated with 0.01 μM TAXOL® and incubated for an additional 48 hours. Proliferation was measured; data points represent the mean optical density at 490 nm±SD from triplicate wells.

B16F10 melanoma cells [3] = test: as above; type: cell-based; details: 50 μg/ml test compound, 0.01 μM TAXOL®; vs untreated control; FIG. 3A
Method: as §1

[4] = tested on: Lewis Lung carcinoma cells; test: as above; type: cell-based; details: 50 μg/ml test compound, 0.01 μM TAXOL®; vs untreated control; FIG. 3B
Method: as §1

B16F10 melanoma cells [5] = test: In vivo tumor growth of B16F10 xenografts in nude mice; details: daily i.p. for 15 days, TAXOL® 0.5 μM, C-45 100 μg; FIG. 4
Method: In addition, tumor growth in vivo of xenografts of B16F10 melanoma cells in nude mice was determined Briefly, subconfluent cultures of B16F10 cells were harvested, washed, and resuspended in sterile PBS. Female nude mice were injected subcutaneously with 1×10^6 cells per mouse and tumors were allowed to grow for 3 days. After 3 days, mice were either untreated or treated daily for 15 days by intraperitoneal injection of TAXOL® (0.5 μM), C-45 (100 μg), or a combination of TAXOL® and C-45. Tumor growth was determined weekly by caliper measurements. After 15 days, the mice were sacrificed and tumor volume was determined by standard methods using the formula […], where V=volume, L=length, and W=width.

B16F10 melanoma cells [6] = test: Chick embryo tumor growth model; type: in vivo, chick embryos; details: for growth of the B16F10 tumors: 50 μg/ml C-45, TAXOL® 0.01 μM, FIG. 5B
Method: The chick embryo tumor growth model was used to determine whether C-45 enhances the ability of TAXOL® or ionizing radiation to inhibit tumor growth. Briefly, B16F10 melanoma cells were cultured in growth medium in the presence or absence of 50 μg/ml C-45 for at least 7 days. Following harvesting and washing, about 2×10^5 tumor cells were implanted onto the chorioallontoic membranes of 10 day-old chick embryos and incubated for at least 24 hours. Following incubation, the embryos were treated with either a single fractionated dose of radiation (5.0 Gy) or TAXOL® (paclitaxel) (0.01 μM) and incubated for an additional 7 days. The embryos were sacrificed and tumors were resected and weighed (5-10 embryos per condition).

[7] = tested on: G361 human melanoma cells; test: Protein expression in PABA-treated G361 melanoma cells (data not shown); type: cell-based; details: G361 cells treated with PABA
PXR/SXR receptor = target: T1, PXR/SXR receptor (Homo sapiens, UniProt O75469); details: Moore et al., Mol. Endocrinol. 2002; cited from earlier work
T1 sequence (O75469 1-434): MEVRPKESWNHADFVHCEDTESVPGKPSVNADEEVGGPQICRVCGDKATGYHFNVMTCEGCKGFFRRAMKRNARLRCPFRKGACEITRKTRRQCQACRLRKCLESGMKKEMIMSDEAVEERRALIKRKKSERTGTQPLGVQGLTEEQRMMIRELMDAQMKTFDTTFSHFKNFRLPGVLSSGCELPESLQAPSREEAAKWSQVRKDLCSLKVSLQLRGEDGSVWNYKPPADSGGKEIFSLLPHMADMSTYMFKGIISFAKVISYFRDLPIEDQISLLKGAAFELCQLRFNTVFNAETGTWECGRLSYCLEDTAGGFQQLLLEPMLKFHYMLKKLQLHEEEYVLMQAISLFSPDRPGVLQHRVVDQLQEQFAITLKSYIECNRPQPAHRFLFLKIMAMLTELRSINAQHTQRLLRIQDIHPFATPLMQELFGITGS

tyrosinase activity [1] | SMILES | in vitro proliferation of 4T1 breast carcinoma cells [2] | in vitro proliferation of B16F10 cells (B16F10 melanoma cells [3]) | in vitro proliferation of Lewis Lung carcinoma cells [4] | in vivo tumor growth compared to untreated controls (B16F10 melanoma cells [5]) | growth of the B16F10 tumors (B16F10 melanoma cells [6]) | tumor growth in vivo, combination with radiation (B16F10 melanoma cells [6]; 50 μg/ml C-45 plus single dose of radiation 5.0 Gy, FIG. 5A) | tumor weight (B16F10 melanoma cells [6]; cells cultured with 50 μg/ml C-45, C-45 alone, FIG. 5A) | expression of cell-cycle progression checkpoint protein CDC25A [7] | protein expression of DNA repair protein BRCA-2 [7] | binding to the PXR/SXR receptor (PXR/SXR receptor)
inhibited tyrosinase activity | C=CCNc1ccc(C(=O)O)cc1 [C-45, 4-allylaminobenzoic acid] | inhibited in vitro proliferation | inhibited in vitro proliferation | inhibited in vitro proliferation | neither TAXOL® nor C-45 inhibited in vivo tumor growth | inhibited the growth of the B16F10 tumors significantly | even more effective at inhibiting tumor growth | reduced tumor weight significantly |  |  | 
inhibited tyrosinase activity | Nc1ccc(C(=O)O)cc1 [PABA, para-amino-benzoic-acid] |  |  |  |  |  |  |  | increase expression | decreased protein expression | bind to the PXR/SXR receptor
 | CC(=O)O[C@H]1C(=O)[C@@]2(C)[C@H]([C@H](OC(=O)c3ccccc3)[C@]3(O)C[C@H](OC(=O)[C@H](O)[C@@H](NC(=O)c4ccccc4)c4ccccc4)C(C)=C1C3(C)C)[C@]1(OC(C)=O)CO[C@@H]1C[C@@H]2O [TAXOL®, paclitaxel, reference compound] | inhibited in vitro proliferation | inhibited in vitro proliferation | inhibited in vitro proliferation | neither TAXOL® nor C-45 inhibited in vivo tumor growth | inhibited the growth of the B16F10 tumors significantly |  |  |  |  | 
